The values that follow come from publication PMC7498324, “Structure and mechanism of CutA, RNA nucleotidyl transferase with an unusual preference for cytosine” (Nucleic Acids Research, 2020).

In this assay the test system is T1, CutA (TtCutA).
T1 construct: TtCutA^240-603
The experiment in a line: fluorescence anisotropy competition with ATP-Cy5. It is filed as binding, Thermothielavioides terrestris.

As a reminder, the IC50 is the concentration at which inhibition is half-maximal.

Each structure is given as a SMILES string.

Regarding `Nc1ncnc2c1ncn2[C@@H]1O[C@H](COP(=O)(O)OP(=O)(O)OP(=O)(O)O)[C@@H](O)[C@H]1O` [ATP], the IC50 is 562 ± 21 nM.

Turning to `Nc1ccn([C@@H]2O[C@H](COP(=O)(O)OP(=O)(O)OP(=O)(O)O)[C@@H](O)[C@H]2O)c(=O)n1` [CTP], the IC50 turned out to be 467 ± 16 nM. The value for `Nc1nc2c(ncn2[C@@H]2O[C@H](COP(=O)(O)OP(=O)(O)OP(=O)(O)O)[C@@H](O)[C@H]2O)c(=O)[nH]1` [GTP] was 1050 ± 56 nM; that for `O=c1ccn([C@@H]2O[C@H](CO[P@@](=O)(O)O[P@@](=O)(O)OP(=O)(O)O)[C@@H](O)[C@H]2O)c(=O)[nH]1` [UTP] was 537 ± 23 nM.
